Measurements reported in patent publication US6632621B1, “G protein-coupled receptor-like receptors and modulators thereof” (priority 1999, dated 2003).
Like-named read-outs stand apart in the source and are kept apart here. Where no end group is shown, it is not given here.

Legend:
human D2 receptor = human D2 receptor (Homo sapiens, UniProt P14416); conditions: 37° C. versus temperature-shift transfection protocol
Description: (§1) Aliquots of cell membranes prepared as described above and stored at −70° C. were thawed, homogenized, and diluted into buffer containing 20 mM HEPES, pH 7.4, 10 mM MgCl2, 1 mM EDTA, and 100 mM NaCl at a concentration of 10-50 μg/ml. Reaction mixtures were prepared in 96-well polypropylene plate, Nunc. Twenty microliters of a 10× putative modulator compound (including but not limited to potential peptide ligands) solution or a water control (20 μl), 18.2 µM GDP (0.11 ml, 10 μM final concentration), and a membrane preparation were mixed and placed on ice. The modulator/ligand-GDP-membrane mixtures were incubated for 20 minutes at room temperature on a shaking platform and then placed on ice.

CEGPCR7 receptor = biological target: T1, CEGPCR7 receptor (Caenorhabditis elegans, UniProt Q18534); assay: [35S]GTPγS binding assay, membranes of CHO cells transfected with CEGPCR7; type: biochemical, C. elegans
T1 construct: Each of the 22 putative GPCR-like receptor clones appeared to contain a full-length coding region; expressed in transfected cells; host or cells: CHO-K1, transient, pCR3.1 clone, 37 to 28 C temperature shift
T1 sequence (Q18534 1-457): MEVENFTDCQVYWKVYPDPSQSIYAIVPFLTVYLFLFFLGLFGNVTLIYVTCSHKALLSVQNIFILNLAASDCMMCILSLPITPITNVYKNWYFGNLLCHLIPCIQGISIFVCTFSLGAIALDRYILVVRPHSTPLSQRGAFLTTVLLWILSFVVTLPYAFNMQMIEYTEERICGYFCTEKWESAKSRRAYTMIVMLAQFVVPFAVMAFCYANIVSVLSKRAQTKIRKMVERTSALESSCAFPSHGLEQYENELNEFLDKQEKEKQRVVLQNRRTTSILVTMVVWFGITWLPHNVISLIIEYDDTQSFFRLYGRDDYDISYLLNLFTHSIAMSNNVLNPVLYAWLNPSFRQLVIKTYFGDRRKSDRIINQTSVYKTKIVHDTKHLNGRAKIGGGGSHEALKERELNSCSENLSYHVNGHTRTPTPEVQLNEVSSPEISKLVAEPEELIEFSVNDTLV
Description: (§2) Recombinant pCR3.1 clones encoding invertebrate GPCR-like receptors were transformed into wild-type CHO-K1 cells and functional expression was achieved using a temperature-shift incubation protocol. The CHO-K1 cells were cultured at 37° C. in a humidified atmosphere of 5% CO2 in air in DMEM medium supplemented with 10% heat-inactivated fetal bovine serum (i.e., FBS), 10 μg/ml gentamicin, and 0.1 mM nonessential amino acids to give complete DMEM medium. Additionally, for incubations at temperatures lower than 37° C., the medium was fortified with 10 mM HEPES (pH 7.4). Cells were transfected with recombinant pCR3.1 clones containing GPCR-like receptor DNAs, using LipofectAMINE PLUS™, essentially according to the manufacturer's instructions. […] In separate plastic tubes, PLUS (20 μl/plate; Life Technologies) was added to 0.75 ml/plate of recombinant plasmid DNA in OptiMEM (5 μg/plate; Gibco/BRL—Life Technologies), mixed and incubated at room temperature for 15 minutes. Separately, LipofectAMINE (30 μl/plate) was mixed with 0.75 ml OptiMEM and added to the pre-complexed DNA/PLUS mixture and incubated at room temperature for 15 minutes. The culture medium was then replaced with serum-free transfection medium (DMEM, 5 ml/plate). The DNA-PLUS-LipofectAMINE complex was then added to the plates (1.5 ml/plate) and mixed gently into the medium, followed by a 3 hour incubation at 37° C. in 5% CO2. At this time, the medium was supplemented with complete DMEM medium containing 20% FBS (6.5 ml/plate) and incubation was continued at 37° C. in 5% CO2. After a total of 24 hours at 37° C. in 5% CO2, the medium was replaced with complete DMEM medium fortified with 10 mM HEPES (10 ml/plate) and the cells were moved to an incubator maintained at 28-30° C. in a humidified atmosphere of 5% CO2 in air. The incubation continued for an additional 24 hours, typically at the lower temperature indicated above. A plasmid encoding Green Fluorescent Protein (i.e., GFP, 4 μg/plate) was used for transient GFP expression in CHO-K1 cells to estimate the transfection yields under the same conditions as used for GPCR-like receptor polynucleotides.
(§3) To assess expression, membranes were prepared from transfected CHO-K1 cells. Transfected cells were washed once with ice-cold Dulbecco's phosphate-buffered saline (i.e., PBS), 5 ml per 10 cm plate, and the cells were scraped into 5 ml of the same buffer. Cell suspensions from multiple plates were combined and centrifuged at 500×g for 10 minutes at 4° C. The cell pellet was reconstituted in ice-cold TEE (25 mM Tris, pH 7.4, 5 mM EGTA, 5 mM EDTA). Convenient aliquots were snap-frozen in liquid nitrogen and stored at −70° C. After thawing, the cells were homogenized and centrifuged at 500×g for 5 minutes at 4° C. to pellet nuclei and unbroken cells. Tile supernatant was centrifuged at 47,000×g for 30 minutes at 4° C. The membrane pellet was washed once with TEE, resuspended in 20 mM HEPES, pH 7.4, 100 mM NaCl, 10 mM MgCl2, 1 mM EDTA (assay buffer), distributed into aliquots of 0.5-1.0 ml, and frozen in liquid nitrogen. Membrane aliquots were stored at −70° C. Membrane protein concentration was determined using the BCA Protein Assay Reagent from Pierce (Rockford, Ill.), with bovine serum albumin (i.e., BSA) as a standard.
Aliquots of cell membranes prepared as described above and stored at −70° C. were thawed, homogenized, and diluted into buffer containing 20 mM HEPES, pH 7.4, 10 mM MgCl2, 1 mM EDTA, and 100 mM NaCl at a concentration of 10-50 μg/ml.

CEGPCR5 [1] = biological target: T2, CEGPCR5 (Caenorhabditis elegans, UniProt Q18179); assay: [35S]GTPγS binding assay, CEGPCR5 expressed in CHO cells; type: biochemical, C. elegans; conditions: membranes from cells transfected and maintained at 37° C.
T2 sequence (Q18179 1-402): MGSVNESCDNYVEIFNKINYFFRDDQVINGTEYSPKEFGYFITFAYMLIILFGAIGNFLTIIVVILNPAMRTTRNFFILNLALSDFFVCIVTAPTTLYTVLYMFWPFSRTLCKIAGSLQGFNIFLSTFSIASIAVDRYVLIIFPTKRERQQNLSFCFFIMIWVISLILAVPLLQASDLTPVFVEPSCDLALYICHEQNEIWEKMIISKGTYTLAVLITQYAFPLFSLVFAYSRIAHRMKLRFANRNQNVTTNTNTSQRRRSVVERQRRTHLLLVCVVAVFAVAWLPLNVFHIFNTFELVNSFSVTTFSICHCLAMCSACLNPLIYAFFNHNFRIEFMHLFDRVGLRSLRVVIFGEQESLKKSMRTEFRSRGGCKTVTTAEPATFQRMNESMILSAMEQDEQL

CEGPCR12h receptor = biological target: T3, CEGPCR12h receptor (Caenorhabditis elegans, UniProt Q20275); assay: [35S]GTPγS binding assay, CEGPCR12h expressed in CHO cells; type: biochemical, C. elegans; conditions: Table 11; peptides tested at 5 μM
T3 sequence (Q20275 1-402): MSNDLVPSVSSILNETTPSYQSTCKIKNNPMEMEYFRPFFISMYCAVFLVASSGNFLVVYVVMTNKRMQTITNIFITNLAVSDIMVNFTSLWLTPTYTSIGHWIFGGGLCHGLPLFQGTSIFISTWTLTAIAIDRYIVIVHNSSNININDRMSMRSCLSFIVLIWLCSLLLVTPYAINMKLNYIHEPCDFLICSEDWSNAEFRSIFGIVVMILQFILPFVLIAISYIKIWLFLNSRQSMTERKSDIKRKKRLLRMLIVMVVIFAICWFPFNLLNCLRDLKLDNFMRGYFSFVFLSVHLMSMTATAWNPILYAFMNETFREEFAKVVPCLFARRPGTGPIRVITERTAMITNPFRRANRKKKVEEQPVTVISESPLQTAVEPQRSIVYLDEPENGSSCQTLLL

CEGPCR5 [2] = biological target: T2, CEGPCR5; assay: [35S]GTPγS binding assay, CEGPCR5 expressed in CHO cells; type: biochemical, C. elegans
Description: as §2, §3, §1

CEGPCR16 receptor [3] = biological target: T4, CEGPCR16 receptor (Caenorhabditis elegans, UniProt Q9XXU4); assay: [35S]GTPγS binding assay, CEGPCR16 expressed in CHO cells; type: biochemical, C. elegans
T4 sequence (Q9XXU4 1-365): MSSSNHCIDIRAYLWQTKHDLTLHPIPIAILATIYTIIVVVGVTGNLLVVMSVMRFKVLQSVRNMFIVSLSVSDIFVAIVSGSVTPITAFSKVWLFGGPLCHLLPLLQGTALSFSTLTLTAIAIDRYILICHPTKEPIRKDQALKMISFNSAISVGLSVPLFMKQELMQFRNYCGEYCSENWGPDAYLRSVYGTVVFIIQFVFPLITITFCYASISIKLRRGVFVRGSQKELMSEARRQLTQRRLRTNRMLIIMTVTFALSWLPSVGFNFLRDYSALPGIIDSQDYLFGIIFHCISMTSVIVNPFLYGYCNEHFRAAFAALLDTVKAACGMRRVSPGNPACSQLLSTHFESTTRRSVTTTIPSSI
Description: as §2, §3, §1

CEGPCR16 receptor [4] = biological target: T4, CEGPCR16 receptor; assay: as above; type: biochemical, C. elegans; conditions: membranes from cells transfected and maintained at 37° C.
[5] = temperature shift to 28° C. 24 hours after transfection

Chain of human D2 receptor (P14416 whole entry): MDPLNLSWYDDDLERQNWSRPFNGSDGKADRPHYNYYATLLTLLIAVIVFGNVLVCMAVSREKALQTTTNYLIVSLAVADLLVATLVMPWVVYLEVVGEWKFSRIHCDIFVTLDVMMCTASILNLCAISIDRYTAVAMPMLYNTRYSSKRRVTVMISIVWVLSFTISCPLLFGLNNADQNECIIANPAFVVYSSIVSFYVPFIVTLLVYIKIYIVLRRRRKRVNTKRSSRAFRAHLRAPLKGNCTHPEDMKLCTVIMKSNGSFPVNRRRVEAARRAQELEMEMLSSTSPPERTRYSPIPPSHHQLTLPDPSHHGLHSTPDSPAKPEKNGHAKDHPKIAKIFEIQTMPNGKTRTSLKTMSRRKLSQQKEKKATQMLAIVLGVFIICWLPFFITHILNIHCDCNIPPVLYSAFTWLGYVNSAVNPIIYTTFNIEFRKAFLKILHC

Compound: NCCc1ccc(O)c(O)c1 [dopamine]
- responses of the receptor to its ligand (human D2 receptor): the same regardless of the transfection protocol used

Compound: H-GLGPRPLRF-NH2 [GLGPRPLRF-NH2]
- EC50 (CEGPCR7 receptor; EC50, single values): 207 nM
- EC50 (CEGPCR7 receptor; EC50 range, Table 7, one range for the group of peptides): 200 to 250 nM
- ligand-induced [35S]GTPγS binding, fold elevation in activity (CEGPCR7 receptor; cooling (28° C.) protocol): 2.6 fold
- receptor activation by matched ligand (CEGPCR5 [1]): not detectably activated
- activity at single concentration (CEGPCR12h receptor): active at
- EC50 (CEGPCR5 [2]): 1 to 10 nM
- EC50 (CEGPCR5 [2]; in words): low nanomolar range
- ligand-induced [35S]GTPγS binding (CEGPCR5 [2]; [5]): significant stimulation

Compound: ASEDALFGTMRF-NH2 [ASEDALFGTMRF-NH2]
- EC50 (CEGPCR16 receptor [3]; Table 10, one range for the group of peptides, read-out: EC50 range): 60 to 300 nM
- ligand-induced [35S]GTPγS binding (CEGPCR16 receptor [3]; [5]): significant stimulation
- receptor activation by matched ligand (CEGPCR16 receptor [4]): not detectably activated
